From patent US12167999B2, “Anti-inflammatory and mydriatic intracameral solutions for inhibition of postoperative ocular inflammatory conditions” (Rayner Intraocular Lenses Limited, priority 2014, dated 2024)
Like-named read-outs stand apart in the source and are kept apart here.

How the values were obtained:
[1] = tested on: COX-2; assay: Estimated percent inhibition of COX-2 from tissue ketorolac concentrations in dogs; assay type: in vivo, female beagles; conditions: for estimated COX-2 inhibition: retina
Protocol: IOL replacement by phacoemulsification was performed on 20 female beagles. During the procedure, OMS302 was administered in BSS solution via irrigation and intracameral injection immediately post-procedure. […] Four animals per time point were sacrificed at 0, 2, 6, 8, and 10 hours post-procedure. Samples of blood and aqueous humor were collected. Enucleated eyes were frozen and dissected for collection of retina, retinal pigmented epithelium-choroid, cornea, iris-ciliary body, vitreous humor, sclera, and lens capsule. Tissue concentrations of ketorolac were quantitated using a liquid chromatography/mass spectrometry (LCMS) method.

[2] = human, in vivo
Text: Patients undergoing cataract extraction and lens replacement (CELR) were eligible. Written informed consent was obtained from 14 subjects, each of whom received topical ophthalmic ketorolac according to the surgeon's usual practice, beginning one day preoperatively. Immediately prior to the initial surgical incision, the surgeon withdrew a 100-μL sample of aqueous humor from the operative eye with a 30-gauge tuberculin syringe. At the conclusion of CELR prior to final re-inflation of the anterior chamber and wound closure, the surgeon withdrew another 100-μL sample from the anterior chamber. The ketorolac concentrations of the intracameral fluid samples were analyzed by an analytical laboratory.

[3] = tested on: PGE2 production; conditions: ketorolac 0.45% compared to nepafenac 0.1% and bromfenac 0.09; cited from earlier work
[4] = Ocular tissue distribution of ketorolac after intracameral OMS302 during IOL replacement in dogs; assay type: in vivo, female beagles
Protocol: This example describes the results of an in vivo study in dogs to determine the concentrations of ketorolac in the retina and other ocular tissues following the intracameral administration of phenylephrine 1% and ketorolac 0.3% injection formulated as described in Table 1 (OMS302) during IOL replacement in dogs.
(§1) IOL replacement by phacoemulsification was performed on 20 female beagles. During the procedure, OMS302 was administered in BSS solution via irrigation and intracameral injection immediately post-procedure. The target dose level of ketorolac was 5.71 mg/eye, and the target dose volume of OMS302 diluted in BSS solution was […] per eye. Four animals per time point were sacrificed at 0, 2, 6, 8, and 10 hours post-procedure. Samples of blood and aqueous humor were collected. Enucleated eyes were frozen and dissected for collection of retina, retinal pigmented epithelium-choroid, cornea, iris-ciliary body, vitreous humor, sclera, and lens capsule. Tissue concentrations of ketorolac were quantitated using a liquid chromatography/mass spectrometry (LCMS) method. Using published IC50 values for cyclooxygenase (COX) inhibition by ketorolac (Waterbury, et. al., Curr Med Res Opin 22(6):1133-40 (2006)), estimates of percent inhibition were derived for each time point.

[5] = tested on: COX-1; assay: Estimated percent inhibition of COX-1 from tissue ketorolac concentrations in dogs; assay type: in vivo, female beagles; conditions: for estimated COX-1 inhibition: retina
Protocol: as §1

[6] = biological target: COX-1 (Homo sapiens, UniProt P23219); conditions: cited from earlier work
[7] = biological target: T1, COX-2 (Homo sapiens, UniProt P35354); conditions: cited from earlier work
T1 sequence (P35354 18-604): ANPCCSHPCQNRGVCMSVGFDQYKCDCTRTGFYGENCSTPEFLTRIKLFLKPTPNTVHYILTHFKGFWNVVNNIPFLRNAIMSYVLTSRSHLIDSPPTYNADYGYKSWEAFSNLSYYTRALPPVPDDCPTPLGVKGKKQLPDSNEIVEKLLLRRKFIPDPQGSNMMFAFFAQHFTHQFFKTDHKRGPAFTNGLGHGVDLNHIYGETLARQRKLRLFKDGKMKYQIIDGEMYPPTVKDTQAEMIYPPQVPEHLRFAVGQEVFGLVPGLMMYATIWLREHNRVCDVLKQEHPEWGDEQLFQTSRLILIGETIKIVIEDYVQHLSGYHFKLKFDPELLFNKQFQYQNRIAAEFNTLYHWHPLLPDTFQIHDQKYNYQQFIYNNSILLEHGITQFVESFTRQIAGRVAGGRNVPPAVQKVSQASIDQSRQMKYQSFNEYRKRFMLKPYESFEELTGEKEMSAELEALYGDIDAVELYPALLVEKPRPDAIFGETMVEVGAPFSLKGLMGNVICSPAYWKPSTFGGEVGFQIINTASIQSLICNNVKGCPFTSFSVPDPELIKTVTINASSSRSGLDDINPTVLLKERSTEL

[8] = aqueous humor, vitreous humor and RPE-choroid, t=8 hours
[9] = for at least 8 hours following drug administration
[10] = for at least 10 hours following drug administration
[11] = used for the estimate of percent inhibition

Sequence of COX-1 (Homo sapiens, UniProt P23219) (P23219 24-599): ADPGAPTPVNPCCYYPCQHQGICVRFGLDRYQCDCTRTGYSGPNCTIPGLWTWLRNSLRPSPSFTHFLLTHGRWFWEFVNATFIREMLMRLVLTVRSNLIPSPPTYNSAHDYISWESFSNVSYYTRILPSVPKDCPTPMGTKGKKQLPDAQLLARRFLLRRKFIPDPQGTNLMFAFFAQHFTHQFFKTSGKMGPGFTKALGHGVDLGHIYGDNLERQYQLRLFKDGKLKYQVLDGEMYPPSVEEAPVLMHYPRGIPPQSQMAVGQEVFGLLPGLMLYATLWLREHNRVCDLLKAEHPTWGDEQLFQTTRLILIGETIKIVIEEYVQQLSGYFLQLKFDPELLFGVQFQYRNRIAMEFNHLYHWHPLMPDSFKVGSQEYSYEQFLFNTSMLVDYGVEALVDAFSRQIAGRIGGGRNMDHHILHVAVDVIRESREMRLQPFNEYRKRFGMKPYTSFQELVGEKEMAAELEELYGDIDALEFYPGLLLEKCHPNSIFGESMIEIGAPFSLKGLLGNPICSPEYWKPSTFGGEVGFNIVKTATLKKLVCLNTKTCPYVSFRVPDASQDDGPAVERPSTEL

Question: Which results are given for `O=C(c1ccccc1)c1ccc2n1CCC2C(=O)O` (racemic) [ketorolac, (+/−)-5-Benzoyl-2,3-dihydro-1H-pyrrolizine-1-carboxylic acid: 2-amino-2(hydroxymethyl)-1,3-propanediol (1:1)]?
Answer: inhibition of COX-2 [1, 8]: > 90%; inhibition of COX-2 in ocular tissues [1, 9]: at least 90%; inhibition of COX-2 in ocular tissues [1, 10]: at least 85%; estimated COX-2 inhibition ([1]; t=0): 96.0%; estimated COX-2 inhibition ([1]; t=8 hours): 91.1%; subjects with an undetectable concentration of ketorolac in the aqueous humor at the end of the surgical procedure [2]: 66.7%; inhibition of PGE2 [3]: greatest inhibition; concentration at 0 h ([4]; female, beagle, dog, plasma, 5.71 mg/eye, t=0, read-out: mean plasma level of ketorolac): 4.73 ± 1.46 ng/mL; concentration at 8 h ([4]; female, beagle, dog, retina, 5.71 mg/eye, eight hours post-procedure, intracameral OMS302 in BSS): 164 ± 39 ng/g; concentration at 0 h ([4]; female, beagle, dog, retina, 5.71 mg/eye, immediately following the end of IOL replacement (t=0), intracameral OMS302 in BSS, read-out: Ketorolac concentration in the retina): 1400 ± 1000 ng/g; half-life ([4]; female, beagle, dog, retina, 5.71 mg/eye, ketorolac after intracameral OMS302, read-out: retinal half-life (converted)): ~228 min; mean plasma level of ketorolac ([4]; t≥2 hours): undetectable; inhibition of COX-1 [5, 8]: > 90%; inhibition of COX-1 in ocular tissues [5, 9]: at least 90%; inhibition of COX-1 in ocular tissues [5, 10]: at least 85%; estimated COX-1 inhibition ([5]; t=0): 99.3%; estimated COX-1 inhibition ([5]; t=8 hours): 98.4%; mean percent inhibition of COX-1 ([5]; retinal tissue, t=10 hours, standard deviation 0.36%): 97.74%; IC50 ([6]; published value): 20 nM; Ki [6, 11]: 10 nM; IC50 ([7]; published value): 120 nM; Ki [7, 11]: 60 nM
